# Source: US5824700A, “Ortho-quinone derivatives novel synthesis therefor and their use in the inhibition of neoplastic cell growth” (Wisconsin Alumni Research Foundation, priority 1996, dated 1998)
# Like-named read-outs stand apart in the source and are kept apart here.
# Assays:
# [1] = test system: human prostate cancer cell line PC-3; experiment: IC50 determination (DNA amount and anchorage-dependent colony formation), prostate cancer PC-3; format: cell-based; details: PC-3, 24 hours exposure
# Protocol: (§1) Table 15 lists the IC50 determinations of Drugs B, C, and D against the human prostate cancer cell line PC-3 and the human breast cancer cell line MCF7. IC50 calculations for each cell line were determined by DNA amount and anchorage-dependent colony formation (CF) as described elsewhere. (See Planchon et al. Cancer Res. 55, 3706 (1995), incorporated herein by reference.) In short, IC50 calculations for each cell line were determined by DNA amount and anchorage-dependent colony formation (CF) assays. For the CF assay, cells were seeded at 500 viable cells/well in 6-well plates and incubated overnight, then treated with equal volumes of media containing β-lapachone at final concentrations ranging from 0.005 to 50 μM in half-log increments (controls were treated with 0.25% DMSO, equivalent to the highest dose of β-lapachone used) for 4 hours or for continuous 12 hour exposures. Plates (3 wells/condition) were stained with crystal violet, and colonies of >50 normal-appearing cells were enumerated. IC50 values for various cells were calculated using drug doses with numbers of colonies surrounding 50% of control. For DNA assays, plates were harvested for IC50 determinations 8 days after treatment using a CytoFluor 2350 fluorescence measurement system (Millipore). Six-well samplings were included in the calculation of DNA fluor units for each dose. A graph of β-lapachone dose versus percentage control DNA in fluor units was used to calculate each IC50. The cells were exposed for 24 hours to the tricyclic naphthoquinones. All experiments were repeated at least twice, each in duplicate. PC-3 is an androgen-independent prostate cancer cell line.
# [2] = test system: human breast cancer cell line MCF7; experiment: IC50 determination (DNA amount and anchorage-dependent colony formation), breast cancer MCF7; format: cell-based; details: MCF7, 24 hours exposure
# Protocol: as §1
# A549 = experiment: Colony formation / cell survival assay, A549 lung cancer cells; format: cell-based; details: Homo sapiens, A549, 4 h; for IC50: A549, 4 h exposure, read-out: ED50 (the source's name)
# Protocol: (§2) The control flasks are treated with DMSO only. […] The remaining flasks are left untouched.
# (§3) The cells are monitored for colony formation. […] The plating efficiency for each dish is then calculated.
# The compounds tested were β-lapachone, 3-hydroxy-β-lapachone, 3,3-DINOR-dunnione (designated "Drug A" in the figures), 3-NOR-dunnione (designated "Drug B" in the figures) and dunnione itself (designated "Drug C" in the figures). A legend for the figures is provided below. The cell lines were cultured and the compounds evaluated according to the standard protocol described above.
# MCF7 = experiment: Colony formation / cell survival assay, MCF7 breast cancer cells; details: Homo sapiens, MCF7, 4 h
# Protocol: 10 standard culture flasks for each drug to be tested are plated with 5×10^5 cells in 5 mL of media and allowed to incubate for 16-24 hours at 37° C.
# Fresh stocks of the compounds to be evaluated are prepared in sterile DMSO. For each drug, two of the ten culture flasks prepared on Day 1 are used as controls. The control flasks are treated with DMSO only. […] The remaining flasks are left untouched. The cells are incubated for 4 hours at 37° C.
# After 4 hours the control flasks are counted (2 counts for each flask) and the cells per mL calculated based on the average of the control counts. The cells are then replated into six 60 mm dishes for each flask from dilutions based on the cells/mL of the control. (In the various test runs, cell concentrations ranged from approximately 50 to approximately 800 cells per mL.) Day 15-20:
# The cells are monitored for colony formation. […] The plating efficiency for each dish is then calculated. The plating efficiencies of the six dishes for each flask are averaged and the standard deviation is calculated. The fraction of cell survival at each concentration is determined based on the controls and plotted as log fraction of cell survival±standard deviation versus the dose of the compound.
# In the same fashion as the above tests, several lapachone and dunnione derivatives were evaluated for their efficacy in inhibiting the proliferation of breast cancer cells. In this instance, the cancer cell line utilized was MCF7.
# Topoisomerase II = experiment: Topoisomerase II-mediated DNA cleavage (electrophoresis); format: biochemical, mammalian; details: gels of FIGS. 9A and 9B
# Protocol: Analogous experiments to assay the ability of several of the compounds described herein to induce Topoisomerase II (Topo II)-mediated DNA cleavage were also performed. The results of one such experiment are depicted in the electrophoretegram of FIGS. 9A and 9B. Here, DNA was incubated in the presence of Topo II and several different compounds described herein.
# A legend for the compounds which were tested in FIGS. 9A and 9B is as follows: [drawing 25] Lane 1: R=H (β-lapachone) Lane 2: R=OH
# In the far left-hand lane of […], DNA alone is shown. Moving to the right, the next lane contains DNA and Topo II (mammalian). Lanes 1-9 of FIGS. 9A and 9B contain a series of concentrations of drugs (see Legend, above) in the presence of DNA and Topo II. Each set of lanes for each drug spans 3 orders of magnitude in concentration (0.1, 1, 10, and 100 μM). […] However, Lanes 1-9, which contain DNA, Topo II, and a drug according to the present invention, show extensive DNA cleavage.
# HT29 = experiment: Colony formation / cell survival assay, HT29 colon cancer cells; format: cell-based, human; details: for effect on ability of HT29 cells to reproduce / IC50: FIG. 1; for effect on ability of HT29 cells to reproduce: β-lapachone at approximately 10 μM; for IC50: HT-29, HT29, 4 h exposure, read-out: ED50 (the source's name)
# Protocol: as §2, §3
# (§4) The cell lines HT29 and BE are both human colon cancer cell lines which are used to test the effectiveness of a given agent against cancer cell growth and proliferation. […] The HT29 and BE cell cultures were prepared and tested according to the protocol given above.
# BE = experiment: Colony formation / cell survival assay, BE colon cancer cells; format: cell-based, human; details: for effect on ability of BE cells to reproduce / IC50: FIG. 2; for effect on ability of BE cells to reproduce: β-lapachone at approximately 10 μM; for viability at 2 µM / viability at 10 µM / viability at 20 µM / viability at 100 µM / IC50: Homo sapiens; for viability at 2 µM / viability at 10 µM / viability at 20 µM / viability at 100 µM: 4 h, read-out: Fraction of Cell Survival; for IC50: BE, 4 h exposure, read-out: ED50 (the source's name)
# Protocol: as §2, §3, §4
# [3] = read-out: Fraction of Cell Survival, A549, FIG. 5, 1 μM, 4 h
# [4] = read-out: Fraction of Cell Survival, A549, FIG. 5, 5 μM, 4 h
# [5] = read-out: Fraction of Cell Survival, A549, FIG. 5, 10 μM, 4 h
# [6] = read-out: Fraction of Cell Survival, A549, FIG. 5, 50 μM, 4 h
# [7] = read-out: ED50, MCF7, 4 h exposure, FIG. 8
# [8] = read-out: Fraction of Cell Survival, MCF7, FIG. 8, 1 μM, 4 h
# [9] = read-out: Fraction of Cell Survival, MCF7, FIG. 8, 5 μM, 4 h
# [10] = read-out: Fraction of Cell Survival, MCF7, FIG. 8, 10 μM, 4 h
# [11] = read-out: Fraction of Cell Survival, MCF7, FIG. 8, 50 μM, 4 h
# [12] = read-out: Fraction of Cell Survival, A549, FIG. 4, 1 μM, 4 h
# [13] = read-out: Fraction of Cell Survival, A549, FIG. 4, 5 μM, 4 h
# [14] = read-out: Fraction of Cell Survival, A549, FIG. 4, 10 μM, 4 h
# [15] = read-out: Fraction of Cell Survival, A549, FIG. 4, 50 μM, 4 h
# [16] = read-out: ED50, MCF7, 4 h exposure, FIG. 7
# [17] = read-out: Fraction of Cell Survival, MCF7, FIG. 7, 1 μM, 4 h
# [18] = read-out: Fraction of Cell Survival, MCF7, FIG. 7, 5 μM, 4 h
# [19] = read-out: Fraction of Cell Survival, MCF7, FIG. 7, 10 μM, 4 h
# [20] = read-out: Fraction of Cell Survival, MCF7, FIG. 7, 50 μM, 4 h
# [21] = Homo sapiens, HT-29, 4 h, read-out: Fraction of Cell Survival
# [22] = read-out: ED50, MCF7, 4 h exposure, FIG. 6
# [23] = read-out: Fraction of Cell Survival
smiles,measurement,setting,value
"CC1OC2=C(C(=O)C(=O)c3ccccc32)C1C (centres unmarked) [Drug B, 2,3-dimethyl-2,3,4,5-dihydro-naphtho (2,3-b)dihydrofuran-6,7-dione]",IC50,[1],700 nM
same,IC50,[2],500 nM
same,IC50,A549; FIG. 5,5600 nM
same,viability at 1 µM,A549; [3],89.7%
same,viability at 5 µM,A549; [4],81.9%
same,viability at 10 µM,A549; [5],0.24%
same,viability at 50 µM,A549; [6],0%
same,IC50,MCF7; [7],1400 nM
same,viability at 1 µM,MCF7; [8],8.88%
same,viability at 5 µM,MCF7; [9],0.32%
same,viability at 10 µM,MCF7; [10],0.16%
same,viability at 50 µM,MCF7; [11],1.54%
CC1CC2=C(O1)c1ccccc1C(=O)C2=O (centres unmarked) [Drug A],IC50,A549; FIG. 4,6000 nM
same,viability at 1 µM,A549; [12],111%
same,viability at 5 µM,A549; [13],121%
same,viability at 10 µM,A549; [14],1.72%
same,viability at 50 µM,A549; [15],0.23%
same,IC50,MCF7; [16],1600 nM
same,viability at 1 µM,MCF7; [17],85.4%
same,viability at 5 µM,MCF7; [18],0.36%
same,viability at 10 µM,MCF7; [19],0.18%
same,viability at 50 µM,MCF7; [20],0.18%
"CC1(C)CCC2=C(O1)c1ccccc1C(=O)C2=O [β-lapachone, 7,8-dihydro-2,2-dimethyl-2H-naphtho(2,3-b)dihydropyran-7,8-dione, reference compound]",intracellular target (in words),Topoisomerase II,Topo II is an intracellular target
same,effect on ability of HT29 cells to reproduce,HT29,significantly impacts upon the ability of the HT29 and BE cells to reproduce
same,viability at 1 µM,HT29; [21],96.7%
same,viability at 5 µM,HT29; [21],49%
same,viability at 10 µM,HT29; [21],0%
same,viability at 50 µM,HT29; [21],0%
same,IC50,HT29; Homo sapiens,4800 nM
same,effect on ability of BE cells to reproduce,BE,significantly impacts upon the ability of the HT29 and BE cells to reproduce
same,viability at 2 µM,BE,1.17%
same,viability at 10 µM,BE,15.8%
same,viability at 20 µM,BE,4.39%
same,viability at 100 µM,BE,0%
same,IC50,BE,8000 nM
same,IC50,A549; FIG. 3,6100 nM
same,IC50,A549; FIG. 4,5800 nM
same,viability at 1 µM,"A549; read-out: Fraction of Cell Survival, A549, FIG. 3, 1 μM, 4 h",265%
same,viability at 5 µM,"A549; read-out: Fraction of Cell Survival, A549, FIG. 3, 5 μM, 4 h",158%
same,viability at 10 µM,"A549; read-out: Fraction of Cell Survival, A549, FIG. 3, 10 μM, 4 h",0%
same,viability at 50 µM,"A549; read-out: Fraction of Cell Survival, A549, FIG. 3, 50 μM, 4 h",17.7%
same,viability at 1 µM,A549; [12],85.5%
same,viability at 5 µM,A549; [13],89.7%
same,viability at 10 µM,A549; [14],0.69%
same,viability at 50 µM,A549; [15],0%
same,IC50,MCF7; [22],9800 nM
same,IC50,MCF7; [16],1600 nM
same,viability at 1 µM,"MCF7; read-out: Fraction of Cell Survival, MCF7, FIG. 6, 1 μM, 4 h",150%
same,viability at 5 µM,"MCF7; read-out: Fraction of Cell Survival, MCF7, FIG. 6, 5 μM, 4 h",0%
same,viability at 10 µM,"MCF7; read-out: Fraction of Cell Survival, MCF7, FIG. 6, 10 μM, 4 h",0%
same,viability at 50 µM,"MCF7; read-out: Fraction of Cell Survival, MCF7, FIG. 6, 50 μM, 4 h",0.32%
same,viability at 1 µM,MCF7; [17],92%
same,viability at 5 µM,MCF7; [18],0.36%
same,viability at 10 µM,MCF7; [19],0.18%
same,viability at 50 µM,MCF7; [20],0.09%
"CC1OC2=C(C(=O)C(=O)c3ccccc32)C1(C)C (centres unmarked) [Drug C, 2,3,3-trimethyl-2,3,4,5-tetrahydro-naphtho(2,3-b)dihydrofuran-6,7-dione]",intracellular target (in words),Topoisomerase II,Topo II is an intracellular target
same,IC50,[1],600 nM
same,IC50,[2],700 nM
same,IC50,A549; FIG. 5,4300 nM
same,viability at 1 µM,A549; [3],110%
same,viability at 5 µM,A549; [4],40%
same,viability at 10 µM,A549; [5],0%
same,viability at 50 µM,A549; [6],0%
same,IC50,MCF7; [7],1400 nM
same,viability at 1 µM,MCF7; [8],55.8%
same,viability at 5 µM,MCF7; [9],0.65%
same,viability at 10 µM,MCF7; [10],0.32%
same,viability at 50 µM,MCF7; [11],0.65%
Cc1cc2c(o1)-c1ccccc1C(=O)C2=O [Drug D],IC50,[1],900 nM
same,IC50,[2],700 nM
CC1(C)OC2=C(CC1O)C(=O)C(=O)c1ccccc12 (stereo not drawn) [3-hydroxy-β-lapachone],effect on ability of HT29 cells to reproduce,HT29,significantly limits the reproductive ability of these cancer cell lines
same,viability at 2 µM,HT29; [21],152%
same,viability at 10 µM,HT29; [21],119%
same,viability at 20 µM,HT29; [21],2.32%
same,viability at 100 µM,HT29; [21],0%
same,IC50,HT29; Homo sapiens,15400 nM
same,effect on ability of BE cells to reproduce,BE,significantly limits the reproductive ability of these cancer cell lines
same,viability at 2 µM,BE,92.9%
same,viability at 10 µM,BE,39.2%
same,viability at 20 µM,BE,1.02%
same,viability at 100 µM,BE,0%
same,IC50,BE,600 nM
same,IC50,A549; FIG. 3,18000 nM
same,viability at 1 µM,A549; [23],304%
same,viability at 5 µM,A549; [23],239%
same,viability at 10 µM,A549; [23],153%
same,viability at 50 µM,A549; [23],0%
same,IC50,MCF7; [22],7700 nM
same,viability at 1 µM,MCF7; [23],106%
same,viability at 5 µM,MCF7; [23],68%
same,viability at 10 µM,MCF7; [23],0%
same,viability at 50 µM,MCF7; [23],0.32%
